Measurements published in EP4159720A1, “NONSYMMETRIC SUBSTITUTED 1,1'-BIPHENYL DERIVATIVES AND USES THEREOF” (Recepton Spolka z Ograniczona Odpowiedzialnoscia, priority 2021, dated 2023).
Where a name gives a salt, the structure may show the parent alone.

What was measured:
[1] = molecular target: T1, hPD-1 (50 nM) and hPD-L1 (5 nM) protein complex (Homo sapiens, UniProt Q9NZQ7); assay: Homogenous Time Resolved Fluorescence (HTRF) assay, Cisbio kit 64ICP01PEG; format: binding; details: activity range from Hill curve fit; 1 h incubation at room temperature; TR-FRET; three independent measurements
T1 construct: purchased Cisbio 64ICP01PEG
T1 sequence (Q9NZQ7 19-238 limits assumed, one chain of several): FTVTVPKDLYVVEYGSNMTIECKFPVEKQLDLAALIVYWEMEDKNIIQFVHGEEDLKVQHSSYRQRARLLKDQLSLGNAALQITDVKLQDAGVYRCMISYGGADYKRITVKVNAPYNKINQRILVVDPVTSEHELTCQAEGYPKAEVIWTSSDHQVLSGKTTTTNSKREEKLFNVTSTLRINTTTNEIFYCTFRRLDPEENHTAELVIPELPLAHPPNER
Method: The biological activity of the compounds described in the previous section was tested by the Homogenous Time Resolved Fluorescence (HTRF) method. Determination was carried out with the use of putty from the Cisbio company (catalog number 64ICP01PEG) in the 20 µL format using the protocol from the manufacturer. Compounds in the concentration range allowing determination of biological activity from the inflection curve were added to the hPD-1 (50 nM) and hPD-L1 (5 nM) protein complex with antibodies and allowed to incubate for one hour at room temperature before measuring Forster resonant energy transfer (TR-FRET) on a Tecan Spark 20M instrument. The results were normalized to a positive control (complex without inhibitor) and negative control (no hPD-1), averaged from three independent measurements and fitted with a Hill curve.
Ranges of activity of the tested compounds: "very good" (+++) below 20 nM, "moderate" (++) - 20-50 nM and "low" (+) - 50 nM - 1 µM.

PD-1/PD-L1 interaction = molecular target: T2, PD-1/PD-L1 interaction (Homo sapiens, UniProt Q9NZQ7); assay: PD-1/PD-L1 Blockade Bioassay (Promega J1252; NFAT cellular assay); format: cell-based; details: PD-1 Effector Jurkat cells co-cultured with PD-L1 aAPC/CHO-K1 cells for 6 h; NFAT-RE luminescence; three replications
T2 construct: host or cells: PD-L1 aAPC/CHO-K1 cells; PD-1 Effector Jurkat T cells
T2 sequence (Q9NZQ7 19-290): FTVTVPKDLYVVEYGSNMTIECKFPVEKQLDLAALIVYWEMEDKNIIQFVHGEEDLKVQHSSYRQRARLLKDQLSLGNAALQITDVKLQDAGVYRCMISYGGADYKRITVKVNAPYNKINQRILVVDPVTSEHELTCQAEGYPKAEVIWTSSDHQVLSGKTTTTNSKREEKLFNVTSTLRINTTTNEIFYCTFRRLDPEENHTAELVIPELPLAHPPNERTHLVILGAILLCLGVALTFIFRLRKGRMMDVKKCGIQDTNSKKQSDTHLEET
Method: The potency of blocking the PD-1/PD-L1 pathway was assessed using the PD-1/PD-L1 Blockade Bioassay (Promega, cat. J1252). This assay relies on two genetically engineered cell lines: PD-1 Effector cells (Jurkat T cells expressing human PD-1 and luciferase driven by NFAT response element) and PD-L1 aAPC/CHO-K1 cells (CHO-K1 cells expressing human PD-L1 and cell surface protein designed to activate cognate T-cell Receptors in an antigen-independent manner). When the two cell types are co-cultured, the PD-1/PD-L1 interaction inhibits TCR signaling and NFAT-RE-mediated luminescence. Addition of either an anti-PD-1 or anti-PD-L1 antibody that blocks the PD-1/PD-L1 interaction releases the inhibitory signal and leads to TCR activation and the NFAT-RE-mediated luminescence, which is then measured on a microplate reader. The assay was performed according to the manufacturer's manual. PD-L1 aAPC/CHO-K1 cells were plated in 96-well, white, flat bottom assay plates at […] cells in 100 µL of medium (Ham's F12, 10% FBS) and incubated overnight at 37°C, 5% CO2. The next day, the medium was removed from the assay plate and serially diluted compounds as listed in table 1 were added at 40 µL per well in the assay buffer (RPMI1640 + 1% FBS + 0,5% DMSO). Next, PD-1 Effector Jurkat cells were resuspended in the assay buffer (RPMI 1640 + 1% FBS) at a concentration of 1,25 × 10^6 cells/mL and added to the assay plate at 40 µL per well (total of […]). The cells were co-cultured for 6 h (37°C, 5% CO2) and then removed from the incubator and equilibrated for 5 min at room temperature. The Bio-GloTM Reagent (Promega, cat. G7941) was prepared according to the manufacturer's instructions and added to each well at 80 µL per well. The results were baseline-corrected to non-treated controls, averaged from three replications and fitted with a 4-parameters variable slope.

| Compound | IC50 [1] [nM] | EC50 (PD-1/PD-L1 interaction) [nM] |
| --- | --- | --- |
| COc1cc(C(=O)Nc2cccc(-c3cccc(NC(=O)c4ccc(CN(C)CCO)cn4)c3C)c2C)ncc1CN(C)CCO [Compound R1_C450, 5-(((2-hydroxyethyl)(methyl)amino)methyl)-N-(3'-(5-(((2-hydroxyethyl)(methyl)amino)methyl)picolinamido)-2,2'-dimethyl-[1,1'-biphenyl]-3-yl)-4-methoxypicolinamide] | < 20 | 206 |
| COc1cc(C(=O)Nc2cccc(-c3cccc(NC(=O)c4cc(OC)c(CN[C@@H]5CCC[C@H]5O)cn4)c3C)c2C)ncc1CNC(CO)CO [Compound R1_C445, 5-(((1,3-dihydroxypropan-2-yl)amino)methyl)-N-(3'-(5-((((1R,2R)-2-hydroxycyclopentyl)amino)methyl)-4-methoxypicolinamido)-2,2'-dimethyl-[1,1'-biphenyl]-3-yl)-4-methoxypicolinamide] | < 20 | 150 |
| COc1cc(C(=O)Nc2cccc(-c3cccc(NC(=O)c4cc(OC)c(CNCCCO)cn4)c3C)c2C)ncc1CNCCO [Compound R1_C454, 5-(((2-hydroxyethyl)amino)methyl)-N-(3'-(5-(((3-hydroxypropyl)amino)methyl)-4-methoxypicolinamido)-2,2'-dimethyl-[1,1'-biphenyl]-3-yl)-4-methoxypicolinamide] | 50 to 1000 | 480 |
| COc1cc(C(=O)Nc2cccc(-c3cccc(NC(=O)c4cc(OC)c(CN[C@@H](C)CO)cn4)c3C)c2C)ncc1CNCCCO [Compound R1_C453, (S)-5-(((1-hydroxypropan-2-yl)amino)methyl)-N-(3'-(5-(((3-hydroxypropyl)amino)methyl)-4-methoxypicolinamido)-2,2'-dimethyl-[1,1'-biphenyl]-3-yl)-4-methoxypicolinamide] | < 20 | 143 |
| COc1cc(C(=O)Nc2cccc(-c3cccc(NC(=O)c4cc(OC)c(CN(C)CCO)cn4)c3C)c2C)ncc1CN[C@@H](C)CO [Compound R1_C441, (S)-5-(((2-hydroxyethyl)(methyl)amino)methyl)-N-(3'-(5-(((1-hydroxypropan-2-yl)amino)methyl)-4-methoxypicolinamido)-2,2'-dimethyl-[1,1'-biphenyl]-3-yl)-4-methoxypicolinamide] | < 20 | 176 |
| COc1cc(C(=O)Nc2cccc(-c3cccc(NC(=O)c4cc(OC)c(CN[C@@H](C)CO)cn4)c3C)c2C)ncc1CNC(CO)CO [Compound R1_C446, (S)-5-(((1,3-dihydroxypropan-2-yl)amino)methyl)-N-(3'-(5-(((1-hydroxypropan-2-yl)amino)methyl)-4-methoxypicolinamido)-2,2'-dimethyl-[1,1'-biphenyl]-3-yl)-4-methoxypicolinamide] | < 20 | 205 |
| COc1cc(C(=O)Nc2cccc(-c3cccc(NC(=O)c4cc(OC)c(CN[C@@H](C)CO)cn4)c3C)c2C)ncc1CN[C@H]1CCC[C@@H]1O [Compound R1_C428, 5-((((1S,2S)-2-hydroxycyclopentyl)amino)methyl)-N-(3'-(5-((((S)-1-hydroxypropan-2-yl)amino)methyl)-4-methoxypicolinamido)-2,2'-dimethyl-[1,1'-biphenyl]-3-yl)-4-methoxypicolinamide] | < 20 | 44.6 |
| COc1cc(C(=O)Nc2cccc(-c3cccc(NC(=O)c4ccc(CN(C)CCO)cn4)c3C)c2C)ncc1CN[C@@H]1CCC[C@H]1O [Compound R1_C451, 5-((((1R,2R)-2-hydroxycyclopentyl)amino)methyl)-N-(3'-(5-(((2-hydroxyethyl)(methyl)amino)methyl)picolinamido)-2,2'-dimethyl-[1,1'-biphenyl]-3-yl)-4-methoxypicolinamide] | < 20 | 68 |
| COc1cc(C(=O)Nc2cccc(-c3cccc(NC(=O)c4ccc(CN(C)CCO)cn4)c3C)c2C)ncc1CN[C@@H]1CCC[C@H]1O [Compound R1_C451_1, 5-((((1R,2R)-2-hydroxycyclopentyl)amino)methyl)-N-(3'-(5-(((2-hydroxyethyl)(methyl)amino)methyl)picolinamido)-2,2'-dimethyl-[1,1'-biphenyl]-3-yl)-4-methoxypicolinamide trihydrochloride] |  | 234 |
| COc1cc(C(=O)Nc2cccc(-c3cccc(NC(=O)c4ccc(CN(C)CCO)cn4)c3C)c2C)ncc1CN[C@@H](C)CO [Compound R1_C458, (S)-N-(3'-(5-(((2-hydroxyethyl)(methyl)amino)methyl)picolinamido)-2,2'-dimethyl-[1,1'-biphenyl]-3-yl)-5-(((1-hydroxypropan-2-yl)amino)methyl)-4-methoxypicolinamide] | < 20 | 159 |
